We go through three molecules from patent US20250292865A1, “DETERMINING BIOLOGICAL PARAMETERS OF A CELL” (THE UNIVERSITY OF BATH, priority 2022, published 2025).

One test deals with T1, A-type [Kv4.2] (Homo sapiens, UniProt Q9NZV8).
T1 sequence (Q9NZV8 1-630): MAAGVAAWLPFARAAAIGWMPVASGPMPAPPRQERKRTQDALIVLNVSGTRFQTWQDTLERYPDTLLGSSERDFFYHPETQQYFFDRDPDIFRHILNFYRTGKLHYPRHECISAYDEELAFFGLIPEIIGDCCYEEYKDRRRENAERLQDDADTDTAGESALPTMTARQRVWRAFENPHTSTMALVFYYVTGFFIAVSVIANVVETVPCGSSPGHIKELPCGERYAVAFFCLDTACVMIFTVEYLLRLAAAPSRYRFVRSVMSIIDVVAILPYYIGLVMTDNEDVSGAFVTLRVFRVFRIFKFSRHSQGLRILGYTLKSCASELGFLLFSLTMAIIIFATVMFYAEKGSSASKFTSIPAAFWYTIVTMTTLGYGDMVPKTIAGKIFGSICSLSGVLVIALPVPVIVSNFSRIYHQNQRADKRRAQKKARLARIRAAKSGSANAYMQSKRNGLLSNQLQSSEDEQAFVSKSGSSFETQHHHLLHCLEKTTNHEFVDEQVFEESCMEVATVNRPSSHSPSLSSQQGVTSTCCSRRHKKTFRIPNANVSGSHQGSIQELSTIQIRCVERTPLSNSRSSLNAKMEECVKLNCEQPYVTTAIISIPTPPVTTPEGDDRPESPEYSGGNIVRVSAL
The note with it: 300 μM; A-type [Kv4.2] selectively expressed in xenopus oocytes; cited from earlier work.

A further test has as its system A-type K+ ion channel. Kind of test: Data assimilation of CA1 neuron current clamp recordings: predicted charge through A-type K+ channel before and after drug. The class given is cell-based, rodent.
The target in the next test is A-type [Kv1.4] (Homo sapiens, UniProt P22459). The note with it: 300 μM; A-type [Kv1.4] selectively expressed in xenopus oocytes; cited from earlier work.
A-type [Kv1.4], sequence (P22459 whole entry): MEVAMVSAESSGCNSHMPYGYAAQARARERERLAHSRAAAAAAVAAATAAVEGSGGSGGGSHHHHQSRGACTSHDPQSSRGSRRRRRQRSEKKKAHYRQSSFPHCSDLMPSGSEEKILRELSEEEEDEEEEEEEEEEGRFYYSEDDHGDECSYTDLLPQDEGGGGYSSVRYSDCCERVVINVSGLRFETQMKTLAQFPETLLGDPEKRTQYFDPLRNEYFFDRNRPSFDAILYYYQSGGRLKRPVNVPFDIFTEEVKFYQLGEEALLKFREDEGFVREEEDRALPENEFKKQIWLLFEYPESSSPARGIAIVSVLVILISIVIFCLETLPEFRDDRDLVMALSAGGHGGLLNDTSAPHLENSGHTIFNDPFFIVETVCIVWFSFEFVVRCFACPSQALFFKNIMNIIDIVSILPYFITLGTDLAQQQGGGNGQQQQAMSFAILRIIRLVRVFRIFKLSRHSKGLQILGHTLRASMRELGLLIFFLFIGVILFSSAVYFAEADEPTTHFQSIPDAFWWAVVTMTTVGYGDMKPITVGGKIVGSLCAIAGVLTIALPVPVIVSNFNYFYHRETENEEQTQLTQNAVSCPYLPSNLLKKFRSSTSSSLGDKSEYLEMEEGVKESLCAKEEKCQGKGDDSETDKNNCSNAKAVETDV
In a further test the target is T2, HCN2 (Homo sapiens, UniProt Q9UL51).
T2 sequence (Q9UL51 1-889): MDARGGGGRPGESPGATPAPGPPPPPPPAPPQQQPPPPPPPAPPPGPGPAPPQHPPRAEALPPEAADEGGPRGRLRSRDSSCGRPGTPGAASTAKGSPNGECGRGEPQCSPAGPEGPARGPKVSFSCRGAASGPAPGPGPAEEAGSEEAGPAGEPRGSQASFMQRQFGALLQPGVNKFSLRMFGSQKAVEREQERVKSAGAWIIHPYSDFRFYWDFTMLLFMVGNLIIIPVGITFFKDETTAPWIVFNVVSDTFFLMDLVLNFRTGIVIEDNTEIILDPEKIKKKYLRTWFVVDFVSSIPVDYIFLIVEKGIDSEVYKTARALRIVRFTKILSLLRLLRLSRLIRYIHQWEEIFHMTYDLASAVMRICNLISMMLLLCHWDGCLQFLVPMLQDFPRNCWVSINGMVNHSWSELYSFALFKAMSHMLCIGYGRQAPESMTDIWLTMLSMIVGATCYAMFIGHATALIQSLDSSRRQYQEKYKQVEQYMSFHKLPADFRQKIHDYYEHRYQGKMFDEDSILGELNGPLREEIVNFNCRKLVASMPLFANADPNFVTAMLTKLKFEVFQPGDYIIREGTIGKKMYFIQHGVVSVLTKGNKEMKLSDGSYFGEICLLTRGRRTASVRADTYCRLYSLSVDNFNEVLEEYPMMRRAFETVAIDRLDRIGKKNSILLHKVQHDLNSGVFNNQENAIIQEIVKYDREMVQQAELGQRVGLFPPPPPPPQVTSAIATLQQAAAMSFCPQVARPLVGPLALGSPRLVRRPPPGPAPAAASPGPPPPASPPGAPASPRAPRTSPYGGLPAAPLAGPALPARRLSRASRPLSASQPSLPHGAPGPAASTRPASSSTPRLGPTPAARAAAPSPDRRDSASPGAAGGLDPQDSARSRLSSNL
The note with it: 50 μM; HCN2 selectively expressed in xenopus oocytes; cited from earlier work.

Another test deals with T3, HCN1 (Homo sapiens, UniProt O60741).
T3 sequence (O60741 1-890): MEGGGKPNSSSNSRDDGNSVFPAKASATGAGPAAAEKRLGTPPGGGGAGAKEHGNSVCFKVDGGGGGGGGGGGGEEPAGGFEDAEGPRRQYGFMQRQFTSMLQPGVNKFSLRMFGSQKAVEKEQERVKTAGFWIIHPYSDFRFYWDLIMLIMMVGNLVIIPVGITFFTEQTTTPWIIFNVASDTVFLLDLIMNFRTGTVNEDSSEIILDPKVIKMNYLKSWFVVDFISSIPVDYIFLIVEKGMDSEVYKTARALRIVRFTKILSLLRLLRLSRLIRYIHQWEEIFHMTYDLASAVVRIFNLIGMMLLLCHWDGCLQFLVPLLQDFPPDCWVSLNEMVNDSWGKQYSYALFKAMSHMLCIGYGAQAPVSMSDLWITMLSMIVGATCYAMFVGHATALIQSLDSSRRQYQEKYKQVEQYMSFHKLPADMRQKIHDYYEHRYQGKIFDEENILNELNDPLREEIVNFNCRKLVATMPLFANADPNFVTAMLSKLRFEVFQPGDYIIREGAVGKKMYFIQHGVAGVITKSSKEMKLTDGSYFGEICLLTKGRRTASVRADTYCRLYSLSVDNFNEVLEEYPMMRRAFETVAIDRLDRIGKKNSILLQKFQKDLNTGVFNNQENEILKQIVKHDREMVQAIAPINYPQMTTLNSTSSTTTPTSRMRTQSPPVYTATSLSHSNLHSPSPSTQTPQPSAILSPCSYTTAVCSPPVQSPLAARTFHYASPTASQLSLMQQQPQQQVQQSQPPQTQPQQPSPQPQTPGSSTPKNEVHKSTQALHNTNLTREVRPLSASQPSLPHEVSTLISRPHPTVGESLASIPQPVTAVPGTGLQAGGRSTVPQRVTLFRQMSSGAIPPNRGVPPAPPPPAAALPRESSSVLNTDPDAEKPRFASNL
To be noted: 50 μM; HCN1 selectively expressed in HEK293 cells; cited from earlier work.

The test system of another test is NaT ion channel. Kind of test: Data assimilation of CA1 neuron current clamp recordings: predicted charge through NaT channel before and after drug. The class given is cell-based, rodent. To be noted: 100 nM IbTX, 2000 ms prediction window, FIG. 12A.
In another test the target is BK [α + β4] (Homo sapiens, UniProt Q12791). The note with it: 100 nM; BK [α + β4] selectively expressed in HEK293 cells; cited from earlier work.
BK [α + β4], sequence (Q12791 whole entry): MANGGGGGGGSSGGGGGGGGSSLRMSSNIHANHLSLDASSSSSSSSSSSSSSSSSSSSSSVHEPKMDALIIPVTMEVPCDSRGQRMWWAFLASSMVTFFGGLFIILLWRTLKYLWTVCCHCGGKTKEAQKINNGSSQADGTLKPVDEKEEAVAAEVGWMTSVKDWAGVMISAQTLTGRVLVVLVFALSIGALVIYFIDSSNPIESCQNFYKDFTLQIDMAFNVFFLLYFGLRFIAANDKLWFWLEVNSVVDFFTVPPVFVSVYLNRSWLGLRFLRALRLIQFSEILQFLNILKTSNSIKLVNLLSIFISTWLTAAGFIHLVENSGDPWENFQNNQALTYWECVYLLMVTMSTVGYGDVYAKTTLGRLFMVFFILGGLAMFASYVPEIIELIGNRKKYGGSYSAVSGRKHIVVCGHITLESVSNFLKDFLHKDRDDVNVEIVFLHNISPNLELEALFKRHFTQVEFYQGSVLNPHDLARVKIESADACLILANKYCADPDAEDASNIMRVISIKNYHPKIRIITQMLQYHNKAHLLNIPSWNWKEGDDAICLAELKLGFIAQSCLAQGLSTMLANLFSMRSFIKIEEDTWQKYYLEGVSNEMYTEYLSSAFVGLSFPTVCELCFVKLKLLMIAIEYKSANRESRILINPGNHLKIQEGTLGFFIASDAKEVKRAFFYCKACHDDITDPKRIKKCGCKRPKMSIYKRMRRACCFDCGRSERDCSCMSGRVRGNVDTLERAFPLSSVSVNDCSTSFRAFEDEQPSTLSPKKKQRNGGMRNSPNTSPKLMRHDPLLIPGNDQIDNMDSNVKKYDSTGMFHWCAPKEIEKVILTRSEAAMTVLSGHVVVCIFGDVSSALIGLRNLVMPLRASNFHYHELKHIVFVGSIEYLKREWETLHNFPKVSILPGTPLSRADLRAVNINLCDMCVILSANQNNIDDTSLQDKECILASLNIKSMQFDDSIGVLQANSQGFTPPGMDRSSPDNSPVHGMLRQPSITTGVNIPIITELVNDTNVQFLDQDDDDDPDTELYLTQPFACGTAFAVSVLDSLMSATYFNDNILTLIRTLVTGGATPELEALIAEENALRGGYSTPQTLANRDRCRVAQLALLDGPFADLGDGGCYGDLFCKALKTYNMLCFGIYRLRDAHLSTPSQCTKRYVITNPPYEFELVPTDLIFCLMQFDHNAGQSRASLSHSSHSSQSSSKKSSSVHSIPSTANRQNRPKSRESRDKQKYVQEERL
BK [α + β4], sequence (Q86W47 whole entry partner): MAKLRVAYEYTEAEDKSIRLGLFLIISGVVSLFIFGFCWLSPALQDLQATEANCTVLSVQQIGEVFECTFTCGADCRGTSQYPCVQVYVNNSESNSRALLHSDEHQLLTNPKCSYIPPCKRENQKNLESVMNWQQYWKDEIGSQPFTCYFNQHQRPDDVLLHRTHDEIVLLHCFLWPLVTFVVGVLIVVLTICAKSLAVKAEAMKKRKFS
A further test has as its target BK [α + β1] (Homo sapiens, UniProt Q12791). To be noted: 100 nM; BK [α + β1] selectively expressed in HEK293 cells; cited from earlier work.
Another test relates to SK ion channel. The experiment in a line: Data assimilation of CA1 neuron current clamp recordings: predicted charge through SK channel before and after drug. To be noted: 100 nM IbTX, 2000 ms prediction window, FIG. 12A. The class given is cell-based, rodent.
In the next test the target is BK [α subunit only] (Homo sapiens, UniProt Q12791). The note with it: 100 nM; BK [α subunit only] selectively expressed in HEK293 cells; cited from earlier work.
BK [α subunit only], sequence (Q12791 whole entry): as the sequence (Q12791 whole entry) above
The next test deals with BK [α + β3] (Homo sapiens, UniProt Q12791). The note with it: 100 nM; BK [α + β3] selectively expressed in HEK293 cells; cited from earlier work.
BK [α + β3], sequence (Q12791 whole entry): as above
BK [α + β3], sequence (Q9NPA1 whole entry partner): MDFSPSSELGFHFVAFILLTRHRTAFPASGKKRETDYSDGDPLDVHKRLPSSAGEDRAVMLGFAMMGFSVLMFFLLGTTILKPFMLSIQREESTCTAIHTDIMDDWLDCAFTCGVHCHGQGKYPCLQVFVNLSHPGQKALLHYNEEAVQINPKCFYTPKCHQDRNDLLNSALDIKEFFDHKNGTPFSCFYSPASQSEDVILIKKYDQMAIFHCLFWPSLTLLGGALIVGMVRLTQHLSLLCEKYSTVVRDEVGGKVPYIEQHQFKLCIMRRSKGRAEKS
A further test concerns K ion channel. Kind of test: Data assimilation of CA1 neuron current clamp recordings: predicted charge through K channel before and after drug. In kind it is cell-based, rodent. To be noted: 100 nM IbTX, 2000 ms prediction window, FIG. 12A.
Another test has as its target T4, BK ion channel (Homo sapiens, UniProt Q12791).
T4 construct: endogenous in cells; host or cells: hippocampal CA1 neuron
The experiment in a line: Data assimilation of CA1 neuron current clamp recordings: predicted charge through BK channel before and after drug. In kind it is cell-based, rodent.

T4 sequence (Q12791 whole entry): as the sequence (Q12791 whole entry) above
BK [α + β1], sequence (Q12791 whole entry): as above
BK [α + β1], sequence (Q16558 whole entry partner): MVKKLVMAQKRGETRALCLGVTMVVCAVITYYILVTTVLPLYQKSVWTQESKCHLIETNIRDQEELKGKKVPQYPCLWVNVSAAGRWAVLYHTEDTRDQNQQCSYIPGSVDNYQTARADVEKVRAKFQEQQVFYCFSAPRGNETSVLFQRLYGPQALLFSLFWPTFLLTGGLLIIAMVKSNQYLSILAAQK

Take `Nc1ccncc1` [4-AP, 4-aminopyridine]: the “EXPECTED DEGREE OF BLOCK AT APPLIED CONCENTRATION” value at A-type [Kv4.2] was roughly 13%; on A-type [Kv1.4], roughly 25%. Moreover, in the test with A-type K+ ion channel (300 μM applied, A-type K+ current, CA1 neuron, mean), the “MEAN PREDICTED INHIBITION (Results)” value is 19.0%. In addition, the “MEDIAN PREDICTED INHIBITION (Results)” value in the test with A-type K+ ion channel (300 μM applied, A-type K+ current, CA1 neuron, median) is given as 24.3%.
`CCN(c1ccccc1)c1cc(=NC)n(C)c(C)n1.Cl` [ZD 7288]: the “EXPECTED DEGREE OF BLOCK AT APPLIED CONCENTRATION” value on HCN2 is recorded as roughly 80%; at HCN1, roughly 63%.
On to “Iberiotoxin (QFTDVDCSVSKECWSVCKDLFGVDRGKCMGKKCRCYQ; UniProt P24663 1-37, looked up)”, for which the “Effect on total predicted charge (spike normalised), pre- vs post-drug” value with NaT ion channel was “does not have a visible effect”; with SK ion channel, “does not have a visible effect”; in the test with A-type K+ ion channel (100 nM IbTX, A-type K+ ion channel, 2000 ms prediction window, FIG. 12A) it was “does not have a visible effect”; in the test on K ion channel it was “does not have a visible effect”; with BK ion channel (100 nM IbTX, BK ion channel, 2000 ms prediction window, FIG. 12A, 12D) it was “does have a noticeable effect”. In addition, the “EXPECTED DEGREE OF BLOCK AT APPLIED CONCENTRATION” value with BK [α + β4] is “Insensitive”; in the test with BK [α + β1], 12%; in the test with BK [α subunit only], 86%; with BK [α + β3], 77%. The “MEAN PREDICTED INHIBITION (Results)” value with BK ion channel (100 nM applied, BK current, CA1 neuron, mean) is 14.8%. The “MEDIAN PREDICTED INHIBITION (Results)” value with BK ion channel (100 nM applied, BK current, CA1 neuron, median) is 12.1%.
